Measurements: ChEMBL document CHEMBL5608203, “Design, synthesis and biological evaluation of a new series of imidazothiazole-hydrazone hybrids as dual EGFR and Akt inhibitors for NSCLC therapy” (Eur J Med Chem, 2024)

Columns and labels:
A549 [1] = assay: Induction of cell cycle arrest at G0/G1 phase in human A549 cells at IC50 incubated for 24 hrs by PI staining based flow cytometry (reference value: 9.17 %); assay type: functional
A549 [2] = assay: Induction of apoptosis in human A549 cells assessed as late apoptotic cells at IC50 incubated for 24 hrs by Annexin V-FITC/PI staining based flow cytometry (reference value: 1.36 %); assay type: functional
A549 [3] = assay: Induction of apoptosis in human A549 cells assessed as caspase-3-negative cells at IC50 incubated for 24 hrs by flow cytometry (reference value: 98.49 %); assay type: functional
A549 [4] = assay: Induction of cell cycle arrest at S phase in human A549 cells at IC50 incubated for 24 hrs by PI staining based flow cytometry (reference value: 59.62 %); assay type: functional
A549 [5] = assay: Induction of apoptosis in human A549 cells assessed as viable cells at IC50 incubated for 24 hrs by Annexin V-FITC/PI staining based flow cytometry (reference value: 96.48 %); assay type: functional
A549 [6] = assay: cells; conditions: Homo sapiens, A549, 24 h
Description: Cytotoxicity against human A549 cells incubated for 24 hrs by MTT assay

A549 [7] = assay: Induction of apoptosis in human A549 cells assessed as necrotic cells at IC50 incubated for 24 hrs by Annexin V-FITC/PI staining based flow cytometry (reference value: 2.05 %); assay type: functional
[8] = Cytotoxicity against human CCD 19Lu cells incubated for 24 hrs by MTT assay; assay type: toxicity, cell-based
A549 [9] = assay: Induction of apoptosis in human A549 cells assessed as early apoptotic cells at IC50 incubated for 24 hrs by Annexin V-FITC/PI staining based flow cytometry (reference value: 0.11 %); assay type: functional
A549 [10] = assay: Induction of cell cycle arrest at G2/M phase in human A549 cells at IC50 incubated for 24 hrs by PI staining based flow cytometry (reference value: 14.00 %); assay type: functional
A549 [11] = assay: Induction of apoptosis in human A549 cells assessed as caspase-3-positive cells at IC50 incubated for 24 hrs by flow cytometry (reference value: 1.50 %); assay type: functional

SMILES	IC50 (A549 [6]) [µM]	Activity (A549 [1]) [%]	Activity (A549 [2]) [%]	Activity (A549 [3]) [%]	Activity (A549 [4]) [%]	Activity (A549 [5]) [%]	Activity (A549 [7]) [%]	IC50 at 24 h [8] [µM]	Activity (A549 [9]) [%]	Activity (A549 [10]) [%]	Activity (A549 [11]) [%]
N#Cc1ccc(-c2cn3c(CC(=O)N/N=C/c4ccc(Oc5ccc(Cl)cc5)cc4)csc3n2)cc1	> 500										
CS(=O)(=O)c1ccc(/C=N/NC(=O)Cc2csc3nc(-c4ccc(C#N)cc4)cn23)cc1	133							160			
N#Cc1ccc(-c2cn3c(CC(=O)N/N=C/c4ccc(Oc5ccccc5)cc4)csc3n2)cc1	> 500										
N#Cc1ccc(Oc2ccc(/C=N/NC(=O)Cc3csc4nc(-c5ccc(C#N)cc5)cn34)cc2)cc1	> 500										
N#Cc1ccc(-c2cn3c(CC(=O)N/N=C/c4ccc(Oc5ccc(Br)cc5)cc4)csc3n2)cc1	> 500										
N#Cc1ccc(-c2cn3c(CC(=O)N/N=C/c4ccc(-c5ccccn5)cc4)csc3n2)cc1	> 500										
N#Cc1ccc(-c2cn3c(CC(=O)N/N=C/c4ccc(Oc5ccc(F)cc5)cc4)csc3n2)cc1	> 500										
N#Cc1ccc(-c2cn3c(CC(=O)N/N=C/c4ccc(N5CCCC5)cc4)csc3n2)cc1	> 500										
N#Cc1ccc(-c2cn3c(CC(=O)N/N=C/c4ccc(Oc5ccc([N+](=O)[O-])cc5)cc4)csc3n2)cc1	> 500										
N#Cc1ccc(-c2cn3c(CC(=O)N/N=C/c4ccc(-n5ccnc5)cc4)csc3n2)cc1	16.9							1.44			
N#Cc1ccc(-c2cn3c(CC(=O)N/N=C/c4ccc(-n5cncn5)cc4)csc3n2)cc1	87.5							> 500			
N#Cc1ccc(-c2cn3c(CC(=O)N/N=C/c4ccccc4)csc3n2)cc1	51.3	7.37	3.76	95.65	38.28	87.52	0.02	> 500	8.7	16.14	3.97
N#Cc1ccc(-c2cn3c(CC(=O)N/N=C/c4ccc5ccccc5c4)csc3n2)cc1	> 500										
CCn1c(-c2nonc2N)nc2c(C#CC(C)(C)O)ncc(OC[C@H]3CCCNC3)c21 [GSK-690693]	11.8	30.35	18.78	73.93	27.55	36.36	1.86		43	13.5	24.29
N#Cc1ccc(-c2cn3c(CC(=O)N/N=C/c4ccc(N5CCCCC5)cc4)csc3n2)cc1	221							> 500			
N#Cc1ccc(-c2cn3c(CC(=O)N/N=C/c4ccc(N5CCOCC5)cc4)csc3n2)cc1	12.2							4.9			
C#Cc1cccc(Nc2ncnc3cc(OCCOC)c(OCCOC)cc23)c1 [ERLOTINIB]		12.58	4.86	93.1	54.85	82.76	0.09		12.28	13.45	6.31

Now from value to compound, other results behind:

IC50 (A549 [6]) [µM]	SMILES	Activity (A549 [1]) [%]	Activity (A549 [2]) [%]	Activity (A549 [3]) [%]	Activity (A549 [4]) [%]	Activity (A549 [5]) [%]	Activity (A549 [7]) [%]	IC50 at 24 h [8] [µM]	Activity (A549 [9]) [%]	Activity (A549 [10]) [%]	Activity (A549 [11]) [%]
23.8	N#Cc1ccc(-c2cn3c(CC(=O)N/N=C/c4ccc(O)cc4)csc3n2)cc1	4.95	4.03	97.42	32.15	92.05	3.89	> 500	0.03	26.23	2.36
> 500	N#Cc1ccc(-c2cn3c(CC(=O)N/N=C/c4ccc(Cl)cc4)csc3n2)cc1										
> 500	N#Cc1ccc(-c2cn3c(CC(=O)N/N=C/c4ccc(C(F)(F)F)cc4)csc3n2)cc1										
14.3	COc1ccc(/C=N/NC(=O)Cc2csc3nc(-c4ccc(C#N)cc4)cn23)cc1	5.65	4.42	97.08	68.81	73.36	0.24	51.7	21.98	10.28	2.58
43.7	N#Cc1ccc(/C=N/NC(=O)Cc2csc3nc(-c4ccc(C#N)cc4)cn23)cc1	13.81	14.85	63.66	43.76	62.71	0.11	> 500	22.33	12.95	34.94
17.7	Cc1ccc(/C=N/NC(=O)Cc2csc3nc(-c4ccc(C#N)cc4)cn23)cc1	6.54	5.72	97.98	62.99	77.37	0.17	115	16.74	13.74	1.88
15.5	CC(C)c1ccc(/C=N/NC(=O)Cc2csc3nc(-c4ccc(C#N)cc4)cn23)cc1							< 3.9			
> 500	N#Cc1ccc(-c2cn3c(CC(=O)N/N=C/c4ccc([N+](=O)[O-])cc4)csc3n2)cc1										
101	N#Cc1ccc(-c2cn3c(CC(=O)N/N=C/c4ccc(F)cc4)csc3n2)cc1							44.4			
379	CSc1ccc(/C=N/NC(=O)Cc2csc3nc(-c4ccc(C#N)cc4)cn23)cc1							> 500			
22.5	CC(C)(C)c1ccc(/C=N/NC(=O)Cc2csc3nc(-c4ccc(C#N)cc4)cn23)cc1	3.91	5.13	95.41	48.94	79.17	0.32	66.5	15.38	20.92	4.14
> 500	N#Cc1ccc(-c2cn3c(CC(=O)N/N=C/c4ccc(Br)cc4)csc3n2)cc1										
